Test results reported in ChEMBL document CHEMBL6109084 (Eur J Med Chem, 2025).
In brackets after ≈: the same amount, converted by molar mass. Activity calls are given as the source filed them. The calls are words filed in the database; no cut-off is given here.

What was measured:
Prothrombin = Prothrombin (Homo sapiens, UniProt P00734); assay: Inhibition of thrombin (unknown origin) using H-D-Phe-Pip-Arg-pNA.2HCl as substrate incubated for 30 mins followed by substrate addition and measured after 60 mins by microplate reader analysis
[1] = Selectivity index, ratio of IC50 for inhibition of plasmin (unknown origin) using PyroGlu-Phe-Lys-pNA.HCl as substrate to IC50 for inhibition of human FXIa using p-Glu-Pro-Arg-pNA.HCl as substrate
Plasma [2] = assay: Anticoagulant activity in citrated human plasma assessed as prolongation of activated partial thromboplastin time at 1 uM incubated for 3 mins by aPTT reagent based automated coagulometric analysis relative to control; assay type: functional; settings: 0.05 h
Plasminogen = Plasminogen (Homo sapiens, UniProt P00747); assay: Inhibition of plasmin (unknown origin) using PyroGlu-Phe-Lys-pNA.HCl as substrate incubated for 30 mins followed by substrate addition and measured after 60 mins by microplate reader analysis
Sequence of Plasminogen (P00747 97-580 limits assumed): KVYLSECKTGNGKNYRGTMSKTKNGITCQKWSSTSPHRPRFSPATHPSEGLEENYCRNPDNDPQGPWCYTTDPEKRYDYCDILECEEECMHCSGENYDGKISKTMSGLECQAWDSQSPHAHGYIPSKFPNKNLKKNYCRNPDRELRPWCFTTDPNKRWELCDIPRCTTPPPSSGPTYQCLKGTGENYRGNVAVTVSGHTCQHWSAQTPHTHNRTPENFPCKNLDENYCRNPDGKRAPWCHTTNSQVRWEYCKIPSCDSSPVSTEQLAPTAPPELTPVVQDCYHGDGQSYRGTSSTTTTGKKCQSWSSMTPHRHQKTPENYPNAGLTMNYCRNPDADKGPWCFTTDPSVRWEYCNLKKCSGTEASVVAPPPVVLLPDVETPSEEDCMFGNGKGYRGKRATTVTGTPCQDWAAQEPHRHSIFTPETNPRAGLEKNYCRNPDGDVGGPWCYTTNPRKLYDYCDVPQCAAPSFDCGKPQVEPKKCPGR
Sequence of Plasminogen (P00747 581-810 limits assumed): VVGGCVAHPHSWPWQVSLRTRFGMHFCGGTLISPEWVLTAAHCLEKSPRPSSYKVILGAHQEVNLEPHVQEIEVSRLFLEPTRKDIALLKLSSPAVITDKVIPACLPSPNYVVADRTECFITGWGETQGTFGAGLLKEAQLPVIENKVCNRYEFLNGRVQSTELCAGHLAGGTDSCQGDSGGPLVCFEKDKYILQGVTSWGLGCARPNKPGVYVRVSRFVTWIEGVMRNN

[3] = Selectivity index, ratio of IC50 for inhibition of FXIIa (unknown origin) using H-D-ProPhe-Arg-pNA.2HCl as substrate to IC50 for inhibition of human FXIa using p-Glu-Pro-Arg-pNA.HCl as substrate
Plasma [4] = assay: Anticoagulant activity in citrated human plasma assessed as prolongation of activated partial thromboplastin time incubated for 3 mins by aPTT reagent based automated coagulometric analysis; assay type: functional; settings: for EC1.5: 0.05 h
Coagulation factor XI = Coagulation factor XI (Homo sapiens, UniProt P03951); assay: Inhibition of human FXIa using p-Glu-Pro-Arg-pNA.HCl as substrate incubated for 30 mins followed by substrate addition and measured after 60 mins by microplate reader analysis
Sequence of Coagulation factor XI (P03951 19-387 limits assumed): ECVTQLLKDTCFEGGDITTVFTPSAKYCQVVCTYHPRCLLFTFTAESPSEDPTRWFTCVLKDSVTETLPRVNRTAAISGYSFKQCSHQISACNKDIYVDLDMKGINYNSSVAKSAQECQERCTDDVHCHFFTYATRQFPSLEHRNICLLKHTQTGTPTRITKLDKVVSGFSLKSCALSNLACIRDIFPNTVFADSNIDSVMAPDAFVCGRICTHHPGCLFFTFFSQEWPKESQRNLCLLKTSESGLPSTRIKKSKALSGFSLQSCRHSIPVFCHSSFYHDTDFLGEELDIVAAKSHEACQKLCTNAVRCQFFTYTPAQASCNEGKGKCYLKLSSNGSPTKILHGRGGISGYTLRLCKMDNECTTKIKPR
Sequence of Coagulation factor XI (P03951 388-625 limits assumed): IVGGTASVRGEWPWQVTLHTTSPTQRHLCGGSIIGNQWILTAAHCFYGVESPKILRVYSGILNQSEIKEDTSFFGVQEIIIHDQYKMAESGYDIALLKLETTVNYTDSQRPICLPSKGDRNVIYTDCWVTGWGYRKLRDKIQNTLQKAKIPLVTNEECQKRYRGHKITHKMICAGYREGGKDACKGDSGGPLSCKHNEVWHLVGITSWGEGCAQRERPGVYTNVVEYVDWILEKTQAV

[5] = Selectivity index, ratio of IC50 for inhibition of chymotrypsin (unknown origin) using N-Suc-Ala-Ala-Pro-Phe-pNA as substrate to IC50 for inhibition of human FXIa using p-Glu-Pro-Arg-pNA.HCl as substrate
[6] = target: Tissue-type plasminogen activator (Homo sapiens, UniProt P00750); assay: Inhibition of tPA (unknown origin) using H-D-Ile-Pro-Arg-pNA-2HCl as substrate incubated for 30 mins followed by substrate addition and measured after 60 mins by microplate reader analysis
Sequence of Tissue-type plasminogen activator (P00750 whole entry): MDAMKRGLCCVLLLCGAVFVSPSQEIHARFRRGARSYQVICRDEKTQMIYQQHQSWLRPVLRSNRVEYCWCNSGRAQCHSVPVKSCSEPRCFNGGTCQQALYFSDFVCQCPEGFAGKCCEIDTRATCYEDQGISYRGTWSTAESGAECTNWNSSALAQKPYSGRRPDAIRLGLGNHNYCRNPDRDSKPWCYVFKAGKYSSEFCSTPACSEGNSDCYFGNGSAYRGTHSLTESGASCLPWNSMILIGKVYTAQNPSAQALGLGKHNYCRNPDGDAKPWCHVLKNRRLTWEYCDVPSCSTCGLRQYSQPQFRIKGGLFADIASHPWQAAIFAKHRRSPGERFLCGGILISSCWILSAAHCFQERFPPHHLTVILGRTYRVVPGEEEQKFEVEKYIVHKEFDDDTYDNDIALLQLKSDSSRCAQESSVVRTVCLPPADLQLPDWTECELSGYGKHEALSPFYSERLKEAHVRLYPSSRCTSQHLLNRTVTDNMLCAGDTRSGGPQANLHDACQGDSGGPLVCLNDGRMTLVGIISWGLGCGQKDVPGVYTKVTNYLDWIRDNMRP

Chymotrypsin = Chymotrypsin (Homo sapiens, UniProt Q99895+P17538+P40313+Q6GPI1); assay: Inhibition of chymotrypsin (unknown origin) using N-Suc-Ala-Ala-Pro-Phe-pNA as substrate incubated for 30 mins followed by substrate addition and measured after 60 mins by microplate reader analysis; assay type: protein assay
HK-2 [7] = assay: Cytotoxicity against human HK-2 cells assessed as reduction in cell viability at 1 to 50 uM incubated for 24 hrs by MTT assay; assay type: toxicity, cell-based; settings: hk-2, 24 h, dose 1-50 µM
[8] = Selectivity index, ratio of IC50 for inhibition of trypsin (unknown origin) using Bz-Ile-Glu(gamma-OR)-Gly-Arg-pNA.HCl as substrate to IC50 for inhibition of human FXIa using p-Glu-Pro-Arg-pNA.HCl as substrate
[9] = Selectivity index, ratio of IC50 for inhibition of tPA (unknown origin) using H-D-Ile-Pro-Arg-pNA-2HCl as substrate to IC50 for inhibition of human FXIa using p-Glu-Pro-Arg-pNA.HCl as substrate
Trypsin = Trypsin (Homo sapiens, UniProt P07477+P07478+P35030); assay: Inhibition of trypsin (unknown origin) using Bz-Ile-Glu(gamma-OR)-Gly-Arg-pNA.HCl as substrate incubated for 30 mins followed by substrate addition and measured after 60 mins by microplate reader analysis; assay type: protein assay
HepG2 = assay: Cytotoxicity against human HepG2 cells assessed as reduction in cell viability at 1 to 50 uM incubated for 24 hrs by MTT assay; assay type: toxicity, cell-based; settings: hepg2, 24 h, dose 1-50 µM
[10] = Selectivity index, ratio of IC50 for inhibition of thrombin (unknown origin) using H-D-Phe-Pip-Arg-pNA.2HCl as substrate to IC50 for inhibition of human FXIa using p-Glu-Pro-Arg-pNA.HCl as substrate
Plasma kallikrein = Plasma kallikrein (Homo sapiens, UniProt P03952); assay: Inhibition of PKal (unknown origin) using H-D-Pro-Phe-Arg-pNA.2HCl as substrate incubated for 30 mins followed by substrate addition and measured after 60 mins by microplate reader analysis
Sequence of Plasma kallikrein (P03952 20-390 limits assumed): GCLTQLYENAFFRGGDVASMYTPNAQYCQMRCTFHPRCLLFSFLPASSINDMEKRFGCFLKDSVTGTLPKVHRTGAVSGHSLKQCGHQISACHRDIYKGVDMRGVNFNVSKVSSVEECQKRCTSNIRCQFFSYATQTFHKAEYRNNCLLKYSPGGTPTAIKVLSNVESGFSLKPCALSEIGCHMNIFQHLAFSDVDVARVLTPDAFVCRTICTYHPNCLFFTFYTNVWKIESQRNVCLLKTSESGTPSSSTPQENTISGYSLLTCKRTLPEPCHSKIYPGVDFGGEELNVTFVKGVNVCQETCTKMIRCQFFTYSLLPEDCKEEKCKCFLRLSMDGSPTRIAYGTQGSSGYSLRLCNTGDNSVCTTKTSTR
Sequence of Plasma kallikrein (P03952 391-638 limits assumed): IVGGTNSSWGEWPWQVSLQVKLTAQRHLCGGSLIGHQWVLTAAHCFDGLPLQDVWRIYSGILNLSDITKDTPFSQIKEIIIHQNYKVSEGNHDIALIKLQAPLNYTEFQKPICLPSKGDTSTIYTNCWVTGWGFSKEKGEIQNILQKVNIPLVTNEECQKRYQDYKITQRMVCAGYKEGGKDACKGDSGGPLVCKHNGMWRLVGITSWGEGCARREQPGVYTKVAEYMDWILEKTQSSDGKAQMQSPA

Plasma [11] = assay: Anticoagulant activity in citrated human plasma assessed as prolongation of prothrombin time incubated for 3 mins by PT reagent based automated coagulometric analysis; assay type: functional, cell-free
[12] = Selectivity index, ratio of IC50 for inhibition of FXa (unknown origin) using Z-D-Arg-Gly-Arg-pNA.2HCl as substrate to IC50 for inhibition of human FXIa using p-Glu-Pro-Arg-pNA.HCl as substrate
Coagulation factor X = Coagulation factor X (Homo sapiens, UniProt P00742); assay: Inhibition of FXa (unknown origin) using Z-D-Arg-Gly-Arg-pNA.2HCl as substrate incubated for 30 mins followed by substrate addition and measured after 60 mins by microplate reader analysis
Sequence of Coagulation factor X (P00742 41-179 limits assumed): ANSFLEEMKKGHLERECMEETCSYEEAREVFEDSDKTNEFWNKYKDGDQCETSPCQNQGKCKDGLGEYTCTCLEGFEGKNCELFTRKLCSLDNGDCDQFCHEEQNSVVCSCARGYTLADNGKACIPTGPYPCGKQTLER
Sequence of Coagulation factor X (P00742 235-488 limits assumed): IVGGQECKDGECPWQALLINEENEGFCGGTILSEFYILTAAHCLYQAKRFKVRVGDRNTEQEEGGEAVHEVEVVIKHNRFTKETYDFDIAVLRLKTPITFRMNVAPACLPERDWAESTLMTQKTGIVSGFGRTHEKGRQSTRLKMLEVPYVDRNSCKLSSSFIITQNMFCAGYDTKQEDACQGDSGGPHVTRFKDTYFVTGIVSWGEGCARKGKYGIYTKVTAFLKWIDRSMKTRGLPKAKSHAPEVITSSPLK

physchem = settings: aqueous medium, pH 7.4
Description: Aqueous solubility of the compound in DMSO at pH 7.4 incubated for 12 hrs by turbidimetric based UV spectrophotometric analysis

[13] = Apparent permeability in MDCK-MDR1 cells; assay type: ADME, cell-based, Canis lupus familiaris; settings: dog
Coagulation factor XII = target: T1, Coagulation factor XII (Homo sapiens, UniProt P00748); assay: Inhibition of FXIIa (unknown origin) using H-D-ProPhe-Arg-pNA.2HCl as substrate incubated for 30 mins followed by substrate addition and measured after 60 mins by microplate reader analysis
T1 sequence (P00748 whole entry): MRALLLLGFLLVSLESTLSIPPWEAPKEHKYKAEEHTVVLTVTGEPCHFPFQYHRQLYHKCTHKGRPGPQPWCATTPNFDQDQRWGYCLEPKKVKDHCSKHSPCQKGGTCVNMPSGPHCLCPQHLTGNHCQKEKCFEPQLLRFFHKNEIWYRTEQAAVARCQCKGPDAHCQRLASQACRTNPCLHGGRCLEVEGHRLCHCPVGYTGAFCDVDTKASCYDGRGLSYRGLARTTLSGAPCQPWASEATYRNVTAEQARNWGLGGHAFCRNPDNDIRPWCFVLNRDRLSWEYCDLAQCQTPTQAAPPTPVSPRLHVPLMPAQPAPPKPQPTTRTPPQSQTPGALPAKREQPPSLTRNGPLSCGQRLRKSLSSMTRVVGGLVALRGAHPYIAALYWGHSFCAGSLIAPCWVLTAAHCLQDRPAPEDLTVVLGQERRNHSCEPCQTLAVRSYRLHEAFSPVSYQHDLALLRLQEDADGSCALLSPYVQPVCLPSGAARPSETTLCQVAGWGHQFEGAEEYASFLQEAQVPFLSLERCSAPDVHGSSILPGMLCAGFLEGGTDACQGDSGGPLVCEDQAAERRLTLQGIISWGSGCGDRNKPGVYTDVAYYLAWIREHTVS

[14] = Metabolic stability in human liver microsome assessed as half life; assay type: ADME; settings: liver microsomes
[15] = Cytotoxicity against human AC16 [Human hybrid] cells assessed as reduction in cell viability at 1 to 50 uM incubated for 24 hrs by MTT assay; assay type: toxicity, cell-based; settings: dose 1-50 µM
[16] = Plasma protein binding in human; assay type: ADME, cell-free; settings: read-out: PPB (converted)
HK-2 [17] = assay: Cytotoxicity against human HK-2 cells assessed as reduction in cell viability at 50 uM incubated for 24 hrs by MTT assay; assay type: toxicity, cell-based; settings: hk-2, 24 h
Plasma [18] = assay: Anticoagulant activity in mouse plasma assessed as prolongation of activated partial thromboplastin time incubated for 3 mins by aPTT reagent based automated coagulometric analysis; assay type: functional; settings: 0.05 h
Mus musculus [19] = assay: Antithrombotic activity in FeCl3-induced carotid arterial thrombosis C57BL/6J mouse model assessed as increase in peak velocity at 10 mg/kg, po measured after 0.5 to 4 hrs; assay type: functional, organism-based; settings: time 0.5-4 hrs
Mus musculus [20] = assay: Antithrombotic activity in FeCl3-induced carotid arterial thrombosis C57BL/6J mouse model assessed as increase in blood flow velocity at 10 mg/kg, po measured after 0.5 to 4 hrs; assay type: functional, organism-based; settings: time 0.5-4 hrs

SMILES | IC50 (Prothrombin) [nM] | Ratio IC50 [1] | IC50 (Plasminogen) [nM] | Ratio IC50 [3] | IC50 (Coagulation factor XI) [nM] | Ratio IC50 [5] | IC50 [6] [nM] | IC50 (Chymotrypsin) [nM] | Ratio IC50 [8] | Ratio IC50 [9] | IC50 (Trypsin) [nM] | Ratio IC50 [10] | IC50 (Plasma kallikrein) [nM] | Ratio IC50 [12] | IC50 (Coagulation factor X) [nM] | IC50 (Coagulation factor XII) [nM] | Activity (Plasma [2]) [%] | Activity (Plasma [4]) | EC1.5 (Plasma [4]) [µM] | Activity (Plasma [11]) | other results
CC[C@H](c1cc(-c2ccc(N)nc2)ccn1)n1cc(OC)c(-c2cc(Cl)ccc2-n2cnnn2)cc1=O |  |  |  |  | 10.6 |  |  |  |  |  |  |  |  |  |  |  | 59.6 |  |  |  | Activity (HK-2 [17]): Toxic
COc1cn(Cc2cc(-c3ccncc3)ccn2)c(=O)cc1-c1cc(Cl)ccc1-n1cnnn1 |  |  |  |  | 1.2 |  |  |  |  |  |  |  |  |  |  |  | 167.2 |  |  |  | fraction unbound [16]: 0.159
CC[C@@H](C(=O)Nc1ccc(C(N)=O)c(F)c1)n1cc(OC)c(-c2cc(Cl)ccc2-n2cc(Cl)nn2)cc1=O |  |  |  |  |  |  |  |  |  |  |  |  |  |  |  |  | 248.2 |  |  |  | Activity (Mus musculus [19]): Active; Activity (Mus musculus [20]): Active; Outperformed Asundexian And Compound F; EC1.5 (Plasma [18]): 2.7 µM
COc1cn(Cc2cccc(-c3ccncc3)c2)c(=O)cc1-c1cc(Cl)ccc1-n1cnnn1 |  |  |  |  | 0.5 |  |  |  |  |  |  |  |  |  |  |  | 122.1 |  |  |  | fraction unbound [16]: 0.027

More lines, in order of falling IC50 (Coagulation factor XI), values ahead:

IC50 (Prothrombin) [nM] | Ratio IC50 [1] | IC50 (Plasminogen) [nM] | Ratio IC50 [3] | IC50 (Coagulation factor XI) [nM] | Ratio IC50 [5] | IC50 [6] [nM] | IC50 (Chymotrypsin) [nM] | Ratio IC50 [8] | Ratio IC50 [9] | IC50 (Trypsin) [nM] | Ratio IC50 [10] | IC50 (Plasma kallikrein) [nM] | Ratio IC50 [12] | IC50 (Coagulation factor X) [nM] | IC50 (Coagulation factor XII) [nM] | SMILES | Activity (Plasma [2]) [%] | Activity (Plasma [4]) | EC1.5 (Plasma [4]) [µM] | Activity (Plasma [11]) | other results
> 1000 | > 1000 | > 1000 | > 1000 | 0.31 | > 1000 | > 1000 | > 1000 | > 1000 | > 1000 | > 1000 | > 1000 | 36 | > 1000 | > 1000 | > 1000 | CC[C@@H](c1cc(-c2ccc(N)nc2F)ccn1)n1cc(OC)c(-c2cc(Cl)ccc2-n2cnnn2)cc1=O | 335.4 | Dose-dependent-effect | 0.34 | inactive | EC1.5 (Plasma [18]): 1.5 µM
 |  |  |  | 0.24 |  |  |  |  |  |  |  |  |  |  |  | CCC(c1cccc(-c2ccc(N)nc2)c1)n1cc(OC)c(-c2cc(Cl)ccc2-n2cnnn2)cc1=O (stereo not given) | 45.7 |  |  |  | fraction unbound [16]: 0.004
> 1000 | > 1000 | > 1000 | > 1000 | 0.19 | > 1000 | > 1000 | > 1000 | > 1000 | > 1000 | > 1000 | > 1000 | 97 | > 1000 | > 1000 | > 1000 | COc1cn(Cc2cc(-c3ccc(N)nc3)ccn2)c(=O)cc1-c1cc(Cl)ccc1-n1cnnn1 | 193.8 | Dose-dependent-effect | 0.57 | inactive | Activity (HK-2 [7]): Non-toxic; Activity (HepG2): Non-toxic; solubility kinetic at 12 h (physchem): 193 µg/mL (≈ 396 µM); Papp [13]: 0.13 ×10⁻⁶ cm/s; half-life [14]: > 3 h; Activity [15]: Non-toxic
> 1000 | > 1000 | > 1000 | > 1000 | 0.13 | > 1000 | > 1000 | > 1000 | > 1000 | > 1000 | > 1000 | > 1000 | 37 | > 1000 | > 1000 | > 1000 | CC[C@@H](c1cc(-c2ccc(N)nc2)ccn1)n1cc(OC)c(-c2cc(Cl)ccc2-n2cnnn2)cc1=O | 368.3 | Dose-dependent-effect | 0.29 | inactive | Activity (HK-2 [17]): Toxic; EC1.5 (Plasma [18]): 1.8 µM
